According to BindingDB's records for doi:10.1021/acs.jmedchem.8b00685 (University of Glasgow, 2018):

Test: Inhibition of human 20S constitutive proteasome beta-2 using Bz-VGR-AMC as substrate after 60 mins by fluorescence assay

SMILES | IC50 [nM]
CC(C)C[C@H](NC(=O)[C@H](CC(C)C)NC(=O)[C@H](Cc1ccccc1)NC(=O)OC(C)(C)C)C(=O)N[C@@H](CCCNC(=N)N)CS(=O)(=O)F | 700
CC(C)C[C@H](NC(=O)[C@H](CC(C)C)NC(=O)[C@@H](N)Cc1ccccc1)C(=O)N[C@@H](Cc1ccc(CN)cc1)CS(=O)(=O)F | 140
CC(C)C[C@H](NC(=O)[C@H](Cc1ccccc1)N=[N+]=[N-])C(=O)N[C@@H](CC(C)C)C(=O)N[C@@H](CCCNC(=N)N)CS(=O)(=O)F | 350
CC(C)C[C@H](NC(=O)[C@H](Cc1ccccc1)N=[N+]=[N-])C(=O)N[C@@H](CC(C)C)C(=O)N[C@@H](CCCCN)CS(=O)(=O)F | 700
CC(=O)N[C@@H](Cc1ccccc1)C(=O)N[C@@H](CC(C)C)C(=O)N[C@@H](CC(C)C)C(=O)N[C@@H](Cc1ccc(CN)cc1)CS(=O)(=O)F | 119
CC(C)C[C@H](NC(=O)[C@H](CC(C)C)NC(=O)[C@H](Cc1ccccc1)NC(=O)OCc1ccccc1)C(=O)N[C@@H](CCCNC(=N)N)CS(=O)(=O)F | 150
CC(C)C[C@H](NC(=O)OCc1ccccc1)C(=O)N[C@@H](CC(C)C)C(=O)N[C@@H](CC(C)C)C(=O)N[C@@H](CCCNC(=N)N)CS(=O)(=O)F | 200
CC(C)C[C@H](NC(=O)[C@H](CC(C)C)NC(=O)[C@@H](N)Cc1ccccc1)C(=O)N[C@@H](Cc1ccc(N)cc1)CS(=O)(=O)F | 220
CC(C)C[C@H](NC(=O)[C@H](CC(C)C)NC(=O)[C@@H](N)Cc1ccccc1)C(=O)N[C@@H](CCCNC(=N)N)CS(=O)(=O)F | 250
CC(=O)N[C@@H](Cc1ccccc1)C(=O)N[C@@H](CC(C)C)C(=O)N[C@@H](CC(C)C)C(=O)N[C@@H](Cc1ccc(N)cc1)CS(=O)(=O)F | 2100
CC(C)C[C@H](NC(=O)[C@H](CC(C)C)NC(=O)[C@@H](N)Cc1ccccc1)C(=O)N[C@@H](CCCCN)CS(=O)(=O)F | 470
CC(=O)N[C@@H](Cc1ccccc1)C(=O)N[C@@H](CC(C)C)C(=O)N[C@@H](CC(C)C)C(=O)N[C@@H](CCCNC(=N)N)CS(=O)(=O)F | 980
CC(=O)N[C@@H](Cc1ccccc1)C(=O)N[C@@H](CC(C)C)C(=O)N[C@@H](CC(C)C)C(=O)N[C@@H](CCCCN)CS(=O)(=O)F | 1500
